Experimental data: patent publication US20050282743A1, “Molecular interactions in cells” (Arbor Vita Corporation, priority 2001, published 2005)
Ends that are not written are not given here. Peptide text beside a SMILES is read from it. * marks the point of attachment. Biotin = O=C1N[C@H]2[C@H](CS[C@H]2CCCCC(=O)*)N1

What was measured:
Assay in all cases: G' assay (10 uM PL peptide), results of TABLE 7 and TABLE 12
Format in all cases: binding
[1] = target: T1, PDZ protein (GST-PDZ fusion) (Homo sapiens, UniProt Q9Y6N9); conditions: PDZ PDZ-73, PDZ Domain 2
T1 construct: made in house; host or cells: E. coli (DH5alpha, BL21 or JM109)
T1 sequence (Q9Y6N9 whole entry, the tested form may be a part): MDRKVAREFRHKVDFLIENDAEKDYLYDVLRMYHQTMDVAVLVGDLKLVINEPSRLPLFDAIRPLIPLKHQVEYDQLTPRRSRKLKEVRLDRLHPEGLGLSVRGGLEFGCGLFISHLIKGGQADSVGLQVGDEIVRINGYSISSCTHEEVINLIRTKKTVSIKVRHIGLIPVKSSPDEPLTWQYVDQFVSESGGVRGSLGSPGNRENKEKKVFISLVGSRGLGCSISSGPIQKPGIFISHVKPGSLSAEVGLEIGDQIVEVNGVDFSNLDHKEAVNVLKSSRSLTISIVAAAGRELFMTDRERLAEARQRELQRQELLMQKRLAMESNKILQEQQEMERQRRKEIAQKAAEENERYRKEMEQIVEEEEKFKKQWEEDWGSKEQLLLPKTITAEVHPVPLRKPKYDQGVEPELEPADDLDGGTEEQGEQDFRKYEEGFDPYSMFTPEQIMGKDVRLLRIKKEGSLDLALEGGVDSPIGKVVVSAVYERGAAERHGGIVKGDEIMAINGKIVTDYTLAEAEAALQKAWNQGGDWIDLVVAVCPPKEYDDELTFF
How it was run: (§1)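 Biotin-PL peptide (N-term label), 10 uM vs GST-PDZ; protein 5 ug/ml by default. A450 nm binned: 1 = 0-1, 2 = 1-2, 3 = 2-3, 4 = 3-4, 5 = >4 on >2 repeats, 0 = no binding.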

[2] = target: T2, PDZ protein (GST-PDZ fusion) (Homo sapiens, UniProt Q9UQ26); conditions: PDZ KIAA0751(L), PDZ Domain 1
T2 construct: made in house; host or cells: E. coli (DH5alpha, BL21 or JM109)
T2 sequence (Q9UQ26 1-1411): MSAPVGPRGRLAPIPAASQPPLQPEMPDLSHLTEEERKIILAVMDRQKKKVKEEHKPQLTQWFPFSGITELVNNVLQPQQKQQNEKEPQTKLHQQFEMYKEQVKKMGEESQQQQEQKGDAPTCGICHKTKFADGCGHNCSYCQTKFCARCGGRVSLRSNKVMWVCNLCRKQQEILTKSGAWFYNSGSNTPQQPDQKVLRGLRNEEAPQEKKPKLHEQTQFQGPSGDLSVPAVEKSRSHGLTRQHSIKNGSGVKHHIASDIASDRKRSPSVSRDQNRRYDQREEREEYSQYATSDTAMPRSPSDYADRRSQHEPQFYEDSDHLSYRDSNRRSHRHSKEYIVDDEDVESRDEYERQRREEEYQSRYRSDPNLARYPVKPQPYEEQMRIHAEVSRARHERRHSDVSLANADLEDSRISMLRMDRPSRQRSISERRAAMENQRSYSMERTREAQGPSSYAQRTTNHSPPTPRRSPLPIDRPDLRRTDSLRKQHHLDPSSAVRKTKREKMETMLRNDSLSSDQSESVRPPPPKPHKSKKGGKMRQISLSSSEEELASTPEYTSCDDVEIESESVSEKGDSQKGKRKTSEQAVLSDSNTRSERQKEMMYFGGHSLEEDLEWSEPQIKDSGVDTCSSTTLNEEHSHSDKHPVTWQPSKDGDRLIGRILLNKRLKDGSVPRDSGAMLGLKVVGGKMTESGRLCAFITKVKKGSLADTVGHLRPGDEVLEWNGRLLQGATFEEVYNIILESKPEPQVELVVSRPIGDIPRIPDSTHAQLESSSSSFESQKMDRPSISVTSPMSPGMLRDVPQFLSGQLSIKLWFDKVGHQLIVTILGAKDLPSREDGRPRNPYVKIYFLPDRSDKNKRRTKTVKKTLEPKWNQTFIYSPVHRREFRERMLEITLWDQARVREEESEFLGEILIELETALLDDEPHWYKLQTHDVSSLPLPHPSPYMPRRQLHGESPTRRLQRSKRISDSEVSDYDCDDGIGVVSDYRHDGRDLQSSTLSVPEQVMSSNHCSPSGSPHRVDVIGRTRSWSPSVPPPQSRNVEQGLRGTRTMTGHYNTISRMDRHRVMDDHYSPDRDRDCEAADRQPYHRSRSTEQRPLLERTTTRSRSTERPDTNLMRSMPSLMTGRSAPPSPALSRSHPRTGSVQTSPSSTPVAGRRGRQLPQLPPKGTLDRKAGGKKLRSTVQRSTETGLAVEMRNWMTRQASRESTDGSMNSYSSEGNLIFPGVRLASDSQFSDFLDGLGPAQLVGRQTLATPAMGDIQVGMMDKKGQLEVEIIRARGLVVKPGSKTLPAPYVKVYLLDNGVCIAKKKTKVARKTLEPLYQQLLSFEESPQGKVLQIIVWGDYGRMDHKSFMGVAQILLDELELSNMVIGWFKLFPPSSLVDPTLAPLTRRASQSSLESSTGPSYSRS
How it was run: as §1

[3] = target: T3, PDZ protein (GST-PDZ fusion) (Homo sapiens, UniProt O60307); conditions: PDZ KIAA0561, PDZ Domain 1
T3 construct: made in house; host or cells: E. coli (DH5alpha, BL21 or JM109)
T3 sequence (O60307 whole entry, the tested form may be a part): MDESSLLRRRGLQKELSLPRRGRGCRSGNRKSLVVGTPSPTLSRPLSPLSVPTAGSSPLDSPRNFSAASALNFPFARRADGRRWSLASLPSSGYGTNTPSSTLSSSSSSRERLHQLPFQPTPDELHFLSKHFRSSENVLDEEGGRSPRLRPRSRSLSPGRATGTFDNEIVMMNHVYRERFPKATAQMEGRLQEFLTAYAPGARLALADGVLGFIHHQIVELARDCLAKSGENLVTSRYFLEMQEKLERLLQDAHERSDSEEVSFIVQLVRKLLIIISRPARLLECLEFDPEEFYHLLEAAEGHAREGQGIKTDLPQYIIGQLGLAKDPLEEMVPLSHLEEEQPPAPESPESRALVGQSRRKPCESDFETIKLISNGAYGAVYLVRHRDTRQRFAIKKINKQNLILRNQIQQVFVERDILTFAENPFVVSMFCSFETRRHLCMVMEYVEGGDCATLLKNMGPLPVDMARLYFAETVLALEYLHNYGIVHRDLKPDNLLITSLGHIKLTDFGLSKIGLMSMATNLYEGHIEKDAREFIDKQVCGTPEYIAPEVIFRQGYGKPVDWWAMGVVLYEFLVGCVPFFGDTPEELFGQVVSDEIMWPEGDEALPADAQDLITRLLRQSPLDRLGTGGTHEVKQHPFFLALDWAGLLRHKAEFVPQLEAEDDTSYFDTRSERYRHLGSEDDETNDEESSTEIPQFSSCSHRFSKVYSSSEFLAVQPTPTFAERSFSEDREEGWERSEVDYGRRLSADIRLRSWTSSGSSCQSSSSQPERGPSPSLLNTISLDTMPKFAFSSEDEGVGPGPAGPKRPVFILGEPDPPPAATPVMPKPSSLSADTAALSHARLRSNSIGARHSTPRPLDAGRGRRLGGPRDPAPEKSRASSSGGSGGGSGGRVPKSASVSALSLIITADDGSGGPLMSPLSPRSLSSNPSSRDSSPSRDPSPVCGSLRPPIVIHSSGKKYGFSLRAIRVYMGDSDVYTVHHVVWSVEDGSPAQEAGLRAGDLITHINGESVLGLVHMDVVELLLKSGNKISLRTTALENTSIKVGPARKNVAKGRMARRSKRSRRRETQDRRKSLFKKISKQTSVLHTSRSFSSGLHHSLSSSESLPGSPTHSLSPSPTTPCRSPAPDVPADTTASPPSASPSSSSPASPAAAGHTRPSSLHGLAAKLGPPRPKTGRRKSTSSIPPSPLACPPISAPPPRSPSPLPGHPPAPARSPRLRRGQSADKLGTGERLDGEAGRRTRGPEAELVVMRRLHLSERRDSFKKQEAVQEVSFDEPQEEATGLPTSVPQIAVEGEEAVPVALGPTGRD
How it was run: as §1

Row | Classification [2] | Classification [3] | Compound | further results
1 |  |  | CSCC[C@H](NC(=O)[C@H](C)NC(=O)[C@H](CCCNC(=N)N)NC(=O)CNC(=O)[C@@H](NC(=O)[C@H](Cc1c[nH]c2ccccc12)NC(=O)[C@H](CCCNC(=N)N)NC(=O)CNC(=O)CCCC[C@@H]1SC[C@@H]2NC(=O)N[C@@H]21)[C@@H](C)O)C(=O)N[C@@H](CO)C(=O)N[C@@H](C)C(=O)N[C@@H](Cc1c[nH]c2ccccc12)C(=O)N[C@@H](CCCCN)C(=O)N1CCC[C@H]1C(=O)N[C@H](C(=O)N[C@@H](CCCNC(=N)N)C(=O)N[C@@H](CCCNC(=N)N)C(=O)N[C@@H](CCC(=O)O)C(=O)N[C@H](C(=O)N[C@@H](CCC(=O)O)C(=O)N[C@H](C(=O)O)C(C)C)[C@@H](C)O)[C@@H](C)O [HPV E6 #35 (modified)] (Biotin-GRWTGRAMSAWKPTRRETEV-OH; C-terminus assumed) | Classification ([1]; PL peptide 10 uM): 2 (A450 nm 1-2)
2 |  |  | CC[C@H](C)[C@H](NC(=O)CNC(=O)[C@H](CO)NC(=O)[C@H](Cc1ccccc1)NC(=O)[C@@H](NC(=O)[C@H](CS)NC(=O)CNC(=O)CNC(=O)[C@H](C)NC(=O)[C@@H]1CCCN1C(=O)[C@@H](NC(=O)[C@@H]1CCCN1C(=O)CCCC[C@@H]1SC[C@@H]2NC(=O)N[C@@H]21)[C@@H](C)CC)[C@@H](C)O)C(=O)N[C@@H](Cc1ccccc1)C(=O)N1CCC[C@H]1C(=O)N[C@H](C(=O)N[C@@H](CC(C)C)C(=O)N[C@H](C(=O)N[C@@H](CO)C(=O)N1CCC[C@H]1C(=O)N[C@@H](CC(C)C)C(=O)O)[C@@H](C)O)[C@@H](C)O [KIA 1481] (Biotin-PIPAGGCTFSGIFPTLTSPL-OH; C-terminus assumed) | Classification [1]: 1 (A450 nm 0-1)
3 | 1 (A450 nm 0-1) | 1 (A450 nm 0-1) | CC[C@H](C)[C@H](NC(=O)[C@H](Cc1ccc(O)cc1)NC(=O)[C@H](CC(C)C)NC(=O)[C@H](CCC(N)=O)NC(=O)[C@H](Cc1c[nH]cn1)NC(=O)[C@H](CO)NC(=O)[C@H](C)NC(=O)[C@H](CC(C)C)NC(=O)[C@@H](NC(=O)[C@H](CC(=O)O)NC(=O)[C@H](CCSC)NC(=O)[C@H](Cc1ccccc1)NC(=O)[C@@H]1CCCN1C(=O)[C@H](CCCNC(=N)N)NC(=O)[C@@H](NC(=O)[C@H](CC(C)C)NC(=O)[C@H](CC(N)=O)NC(=O)[C@H](CC(=O)O)NC(=O)[C@@H](NC(=O)[C@H](CO)NC(=O)CCCC[C@@H]1SC[C@@H]2NC(=O)N[C@@H]21)[C@@H](C)O)C(C)C)[C@@H](C)O)C(=O)O [presenilin-2] (Biotin-STDNLVRPFMDTLASHQLYI-OH; C-terminus assumed) | 
4 | 3 (A450 nm 2-3) |  | A2AA_HUMAN (modified) (Biotin-HDFRRAFKKILARGDRKRIV; not fully specified) | 
5 |  | 1 (A450 nm 0-1) | KTMPAATYRLLTGQEQPVYL (Biotin-KTMPAATYRLLTGQEQPVYL) [MINT-3] | 
